The values below come from patent US12544378B2, “Solid pharmaceutical formulation of PARP inhibitors and use thereof” (IMPACT THERAPEUTICS (SHANGHAI), INC, priority 2015, dated 2026).

The AUC(0-inf) is the area under the concentration-time curve extrapolated to infinity. Higher therefore signals more exposure. As usually defined, the AUC(0-t) is exposure summed from dosing to a finite time, without extrapolation to infinity. Low values mean less exposure, high ones more exposure. By Cmax is commonly meant the peak of the concentration-time curve. A word on the half-life: it is how long it takes for the measured level to halve. As a reminder, the bioavailability is the share of a dose that reaches the circulation, judged against a reference dose that is usually intravenous.

Some results are limits rather than exact numbers.

Data set [1] in a line: Absorption of amorphous solid dispersion HP-55 (1:3), rat pharmacokinetics (PK) method (Example 12). In kind it is in vivo. To be noted: whole blood, Wistar rats, IV, 1 mg/kg, solution in DMSO:10% HP-β-CD PBS (1:9). How it is done: Measurement of the Absorption Ratio of the Amorphous Solid Dispersions of 5-fluoro-1-(4-fluoro-3-(4-(pyrimidin-2-yl)piperazine-1-carbonyl)benzyl)quinazoline-2,4(1H,3H)-dione:HP-55 (1:3) Using a Rat Pharmacokinetics (PK) Method
(§1) The solution of 5-fluoro-1-(4-fluoro-3-(4-(pyrimidin-2-yl)piperazine-1-carbonyl)benzyl)quinazoline-2,4(1H,3H)-dione in DMSO:10% HP-β-CD PBS (1:9) was administered to Wistar rats at 1 mg/kg by IV. And the homogeneous suspension of the amorphous solid dispersion of 5-fluoro-1-(4-fluoro-3-(4-(pyrimidin-2-yl)piperazine-1-carbonyl)benzyl)quinazoline-2,4(1H,3H)-dione:HP-55 (1:3) in 0.5% MC/water was administered to Wistar rats at 10 mg/kg by IG. The blood was sampled at a certain time after administration. The blood concentrations were measured by LCMS method, and the oral absorption was measured by a rat pharmacokinetics (PK) method.

A further data set can be described thus: Water solubility. Type of data set: physicochemical.
Data set [2] in a line: Effects of vehicle formulas on drug absorption, mouse pharmacokinetics (PK) method (Example 8). Type of data set: in vivo. As to conditions: ICR mice, gavage, solution in DMSO:10% HP-β-CD PBS=1:9. How it is done: Measurement of the Effects of 5-fluoro-1-(4-fluoro-3-(4-(pyrimidin-2-yl)piperazine-1-carbonyl)benzyl)quinazoline-2,4(1H,3H)-dione Vehicle Formulas on the Drug Absorption Using a Mouse Pharmacokinetics (PK) Method
5-Fluoro-1-(4-fluoro-3-(4-(pyrimidin-2-yl)piperazine-1-carbonyl)benzyl)quinazoline-2,4(1H,3H)-dione in different vehicle formulas at the same dosage was administered to ICR mice by gavage. The blood was sampled at 30 min after gavage, the blood concentrations were measured by LCMS method, and the effects on the drug absorption of different vehicle formulas was made a comparison. The blood concentrations were shown as the table below: […]

Data set [3] in a line: Absorption of amorphous solid dispersion HP-55 (1:3), mouse pharmacokinetics (PK) method (Example 11). In kind it is in vivo. To be noted: whole blood, mice, IV, 1 mg/kg, solution in DMSO:10% HP-β-CD PBS (1:9). How it is done: Measurement of the Absorption Ratio of the Amorphous Solid Dispersions of 5-fluoro-1-(4-fluoro-3-(4-(pyrimidin-2-yl)piperazine-1-carbonyl)benzyl)quinazoline-2,4(1H,3H)-dione:HP-55 (1:3) Using a Mouse Pharmacokinetics (PK) Method
as §1, with “to mice” for “to Wistar rats”, “a mouse” for “a rat”

A short description of data set [4]: Bioavailability after oral administration of the crystalline compound. As to conditions: mouse, in vivo, mice, simple mixture of crystalline compound with surfactants (Tween 80) and emulsifiers (methylcellulose).

In data set [1] (female), `O=C(c1cc(Cn2c(=O)[nH]c(=O)c3c(F)cccc32)ccc1F)N1CCN(c2ncccn2)CC1` [5-fluoro-1-(4-fluoro-3-(4-(pyrimidin-2-yl)piperazine-1-carbonyl)benzyl)quinazoline-2,4(1H,3H)-dione] showed an area under the curve AUC(0-inf) of 1290 ng·h/mL, an area under the curve AUC(0-t) of 1250 ng·h/mL, a peak concentration (Cmax) of 618 ng/mL and a half-life of 304 min. For the same molecule, in data set [1] (male), the AUC(0-inf) was 365 ng·h/mL, the AUC(0-t) was determined as 363 ng·h/mL, the highest concentration (Cmax) worked out at 896 ng/mL and the half-life is 51 min. Also, in “Water solubility”, the “water solubility (in words)” value is listed as “very low”. Besides, the oral absorption rate in data set [2] is on record as 48%. For the same molecule, in data set [3], the total exposure AUC(0-inf) amounted to 997 ng·h/mL, the AUC(0-t) is 991 ng·h/mL, the highest level (Cmax) was 1920 ng/mL and the half-life was 32.7 min. For the same molecule, the bioavailability in data set [4] was less than 5%.
